From PubChem BioAssay (NCI)
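The compound was tested at five concentrations on cells cultured in 96-well plates, with a 48-hour exposure period. The concentration for full growth arrest is given as TGI.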

Tests used:
Assay in all cases: inhibition of tumour cell growth, NCI panel, 48 h
CCRF-CEM leukemia = tested on: CCRF-CEM leukemia
HCT-15 colon = tested on: HCT-15 colon
SK-MEL-28 melanoma = tested on: SK-MEL-28 melanoma
KM12 colon = tested on: KM12 colon
KM20L2 colon = tested on: KM20L2 colon
HL-60(TB) leukemia = tested on: HL-60(TB) leukemia
SK-MEL-2 melanoma = tested on: SK-MEL-2 melanoma
CAKI-1 renal = tested on: CAKI-1 renal
HOP-92 NSCLC = tested on: HOP-92 NSCLC
OVCAR-3 ovarian = tested on: OVCAR-3 ovarian
SNB-75 CNS = tested on: SNB-75 CNS
NCI-H226 lung = tested on: NCI-H226 lung
NCI-H522 lung = tested on: NCI-H522 lung
SF-268 CNS = tested on: SF-268 CNS
UO-31 renal = tested on: UO-31 renal
MALME-3M melanoma = tested on: MALME-3M melanoma
TK-10 renal = tested on: TK-10 renal
SF-295 CNS = tested on: SF-295 CNS
HCT-116 colon = tested on: HCT-116 colon
OVCAR-5 ovarian = tested on: OVCAR-5 ovarian
SR leukemia = tested on: SR leukemia
SW-620 colon = tested on: SW-620 colon
A549 NSCLC = tested on: A549 NSCLC
OVCAR-8 ovarian = tested on: OVCAR-8 ovarian
786-0 renal = tested on: 786-0 renal
COLO 205 colon = tested on: COLO 205 colon
HOP-62 NSCLC = tested on: HOP-62 NSCLC
DMS 273 small cell lung = tested on: DMS 273 small cell lung
K-562 leukemia = tested on: K-562 leukemia
SF-539 CNS = tested on: SF-539 CNS
DMS 114 small cell lung = tested on: DMS 114 small cell lung
RPMI-8226 leukemia = tested on: RPMI-8226 leukemia
UACC-257 melanoma = tested on: UACC-257 melanoma
DLD-1 colon = tested on: DLD-1 colon
OVCAR-4 ovarian = tested on: OVCAR-4 ovarian
HCC-2998 colon = tested on: HCC-2998 colon
SK-MEL-5 melanoma = tested on: SK-MEL-5 melanoma
M14 melanoma = tested on: M14 melanoma
SNB-19 CNS = tested on: SNB-19 CNS
U251 CNS = tested on: U251 CNS
MOLT-4 leukemia = tested on: MOLT-4 leukemia
HT29 colon = tested on: HT29 colon
ACHN renal = tested on: ACHN renal
NCI-H23 lung = tested on: NCI-H23 lung
LXFL 529 NSCLC = tested on: LXFL 529 NSCLC
MDA-MB-231 breast = tested on: MDA-MB-231 breast
NCI-H460 lung = tested on: NCI-H460 lung
UACC-62 melanoma = tested on: UACC-62 melanoma
A498 renal = tested on: A498 renal
DU-145 prostate = tested on: DU-145 prostate
MDA-N = tested on: MDA-N
IGROV1 ovarian = tested on: IGROV1 ovarian
NCI/ADR-RES ovarian = tested on: NCI/ADR-RES ovarian
MCF7 breast = tested on: MCF7 breast
SK-OV-3 ovarian = tested on: SK-OV-3 ovarian
T-47D breast = tested on: T-47D breast
PC-3 prostate = tested on: PC-3 prostate
BT-549 breast = tested on: BT-549 breast
SN12C renal = tested on: SN12C renal
MDA-MB-435 = tested on: MDA-MB-435
RXF 393 renal = tested on: RXF 393 renal
EKVX NSCLC = tested on: EKVX NSCLC
HS 578T breast = tested on: HS 578T breast
LOX IMVI melanoma = tested on: LOX IMVI melanoma

For `Cc1c2c(ccc3ccccc32)c[n+]2ccccc12`, the TGI (CCRF-CEM leukemia) was 36.5 µM, the TGI (HCT-15 colon) was > 100 µM and the TGI (SK-MEL-28 melanoma) was 31.1 µM. For the same compound, the TGI (KM12 colon) was 11.8 µM, the TGI (KM20L2 colon) was 77 µM and the TGI (HL-60(TB) leukemia) was 68.5 µM. For the same compound, the TGI (SK-MEL-2 melanoma) was 33.7 µM, the TGI (CAKI-1 renal) was > 100 µM and the TGI (HOP-92 NSCLC) was 90.8 µM. The TGI (OVCAR-3 ovarian) was 19.3 µM, the TGI (SNB-75 CNS) was 8.94 µM and the TGI (NCI-H226 lung) was 35.1 µM. For the same compound, the TGI (NCI-H522 lung) was 18.8 µM, the TGI (SF-268 CNS) was 11.3 µM and the TGI (UO-31 renal) was > 100 µM. The TGI (MALME-3M melanoma) was 6.98 µM, the TGI (TK-10 renal) was > 100 µM and the TGI (SF-295 CNS) was 22.5 µM. The TGI (HCT-116 colon) was > 100 µM, the TGI (OVCAR-5 ovarian) was > 100 µM and the TGI (SR leukemia) was 23.3 µM. The TGI (SW-620 colon) was > 100 µM, the TGI (A549 NSCLC) was > 100 µM and the TGI (OVCAR-8 ovarian) was 60.1 µM. For the same compound, the TGI (786-0 renal) was > 100 µM, the TGI (COLO 205 colon) was 33.7 µM and the TGI (HOP-62 NSCLC) was 26.7 µM. It also gave a TGI (DMS 273 small cell lung) of 28.5 µM, a TGI (K-562 leukemia) of 37.8 µM and a TGI (SF-539 CNS) of 33.2 µM. For the same compound, the TGI (DMS 114 small cell lung) was 19.8 µM, the TGI (RPMI-8226 leukemia) was > 100 µM and the TGI (UACC-257 melanoma) was 26.5 µM. For the same compound, the TGI (DLD-1 colon) was > 100 µM, the TGI (OVCAR-4 ovarian) was 28.9 µM and the TGI (HCC-2998 colon) was 26 µM. The TGI (SK-MEL-5 melanoma) was 16 µM, the TGI (M14 melanoma) was 40.9 µM and the TGI (SNB-19 CNS) was 7.89 µM. For the same compound, the TGI (U251 CNS) was 13.8 µM, the TGI (MOLT-4 leukemia) was 27.9 µM and the TGI (HT29 colon) was > 100 µM. The TGI (ACHN renal) was > 100 µM, the TGI (NCI-H23 lung) was 22.5 µM and the TGI (LXFL 529 NSCLC) was 28.3 µM.
Compound `O=C1C(Cl)=C(N2CCN(c3ccccn3)CC2)C(=O)c2ncccc21` has a TGI (MDA-MB-231 breast) of 3.39 µM, a TGI (CCRF-CEM leukemia) of 3.11 µM and a TGI (HCT-15 colon) of 3.12 µM. It also gave a TGI (SK-MEL-28 melanoma) of 4.38 µM, a TGI (KM12 colon) of 12.2 µM and a TGI (NCI-H460 lung) of 13.4 µM. It also gave a TGI (UACC-62 melanoma) of 5.52 µM, a TGI (A498 renal) of 23.8 µM and a TGI (HL-60(TB) leukemia) of 4.79 µM. The TGI (DU-145 prostate) was 24.1 µM, the TGI (SK-MEL-2 melanoma) was 4.02 µM and the TGI (CAKI-1 renal) was 4.01 µM. For the same compound, the TGI (HOP-92 NSCLC) was 3.29 µM, the TGI (OVCAR-3 ovarian) was 3.21 µM and the TGI (SNB-75 CNS) was 19.8 µM. The TGI (NCI-H226 lung) was 18.2 µM, the TGI (MDA-N) was 3.51 µM and the TGI (IGROV1 ovarian) was 6.63 µM. For the same compound, the TGI (NCI/ADR-RES ovarian) was 7.44 µM, the TGI (NCI-H522 lung) was 2.83 µM and the TGI (SF-268 CNS) was 8.17 µM. It also gave a TGI (UO-31 renal) of 3.3 µM, a TGI (MCF7 breast) of 3.21 µM and a TGI (SK-OV-3 ovarian) of 20.6 µM. For the same compound, the TGI (MALME-3M melanoma) was 3.21 µM, the TGI (T-47D breast) was 3.16 µM and the TGI (TK-10 renal) was 9.75 µM. For the same compound, the TGI (SF-295 CNS) was 18.8 µM, the TGI (PC-3 prostate) was 7.52 µM and the TGI (HCT-116 colon) was 3.14 µM. It also gave a TGI (OVCAR-5 ovarian) of 21.8 µM, a TGI (SR leukemia) of 3.2 µM and a TGI (SW-620 colon) of 3.79 µM. The TGI (A549 NSCLC) was 19.5 µM, the TGI (BT-549 breast) was 4.63 µM and the TGI (OVCAR-8 ovarian) was 2.77 µM. For the same compound, the TGI (786-0 renal) was 3.12 µM, the TGI (COLO 205 colon) was 3.31 µM and the TGI (HOP-62 NSCLC) was 25.6 µM. It also gave a TGI (K-562 leukemia) of 5.78 µM, a TGI (SF-539 CNS) of 3.94 µM and a TGI (RPMI-8226 leukemia) of 5.7 µM. It also gave a TGI (SN12C renal) of 7 µM, a TGI (UACC-257 melanoma) of 3.24 µM and a TGI (OVCAR-4 ovarian) of 3.33 µM. It also gave a TGI (HCC-2998 colon) of 30.4 µM, a TGI (SK-MEL-5 melanoma) of 4.22 µM and a TGI (MDA-MB-435) of 3.17 µM. It also gave a TGI (RXF 393 renal) of 3.7 µM, a TGI (M14 melanoma) of 3 µM and a TGI (SNB-19 CNS) of 25 µM. It also gave a TGI (EKVX NSCLC) of 24.4 µM, a TGI (U251 CNS) of 15.2 µM and a TGI (HS 578T breast) of 5.95 µM. The TGI (MOLT-4 leukemia) was 4.09 µM, the TGI (HT29 colon) was 9.93 µM and the TGI (ACHN renal) was 5.52 µM. It also gave a TGI (NCI-H23 lung) of 5.47 µM and a TGI (LOX IMVI melanoma) of 3.59 µM.
Work on `CC(Oc1ccccc1Cl)C(=O)NN1C(=O)CSC1c1ccc(Cl)cc1` (configuration not stated) yielded a TGI (MDA-MB-231 breast) of 32.7 µM, a TGI (CCRF-CEM leukemia) of 0.381 µM and a TGI (HCT-15 colon) of 43.8 µM. For the same compound, the TGI (SK-MEL-28 melanoma) was 49.2 µM, the TGI (KM12 colon) was 36.1 µM and the TGI (NCI-H460 lung) was 59.8 µM. For the same compound, the TGI (UACC-62 melanoma) was 34 µM, the TGI (A498 renal) was 34.8 µM and the TGI (HL-60(TB) leukemia) was 23.5 µM. For the same compound, the TGI (DU-145 prostate) was 37.6 µM, the TGI (SK-MEL-2 melanoma) was 44.9 µM and the TGI (CAKI-1 renal) was 56.4 µM. It also gave a TGI (HOP-92 NSCLC) of 40.7 µM, a TGI (OVCAR-3 ovarian) of 61.9 µM and a TGI (SNB-75 CNS) of 45.4 µM. The TGI (NCI-H226 lung) was 35.3 µM, the TGI (MDA-N) was 29.8 µM and the TGI (IGROV1 ovarian) was 43 µM. The TGI (NCI/ADR-RES ovarian) was 61.4 µM, the TGI (NCI-H522 lung) was 32.8 µM and the TGI (SF-268 CNS) was 47.6 µM. The TGI (UO-31 renal) was > 100 µM, the TGI (MCF7 breast) was 35.7 µM and the TGI (SK-OV-3 ovarian) was 39.7 µM. For the same compound, the TGI (MALME-3M melanoma) was 93.4 µM, the TGI (T-47D breast) was 52.1 µM and the TGI (TK-10 renal) was 55.9 µM. The TGI (SF-295 CNS) was 37.8 µM, the TGI (PC-3 prostate) was 38.2 µM and the TGI (HCT-116 colon) was 29.3 µM. For the same compound, the TGI (OVCAR-5 ovarian) was 48 µM, the TGI (SR leukemia) was 22.9 µM and the TGI (SW-620 colon) was 55.2 µM. The TGI (A549 NSCLC) was 41 µM, the TGI (BT-549 breast) was 45.1 µM and the TGI (OVCAR-8 ovarian) was 56.5 µM. It also gave a TGI (786-0 renal) of 28.6 µM, a TGI (COLO 205 colon) of 37.1 µM and a TGI (HOP-62 NSCLC) of 36.4 µM. The TGI (K-562 leukemia) was 30.6 µM, the TGI (SF-539 CNS) was 65.3 µM and the TGI (RPMI-8226 leukemia) was 38.4 µM. For the same compound, the TGI (SN12C renal) was 28 µM, the TGI (UACC-257 melanoma) was 45.1 µM and the TGI (OVCAR-4 ovarian) was 29.3 µM. The TGI (HCC-2998 colon) was 34.2 µM, the TGI (SK-MEL-5 melanoma) was 31.7 µM and the TGI (MDA-MB-435) was 31.1 µM. For the same compound, the TGI (RXF 393 renal) was 33.4 µM, the TGI (M14 melanoma) was 34.5 µM and the TGI (SNB-19 CNS) was 50.2 µM. It also gave a TGI (EKVX NSCLC) of 71.6 µM, a TGI (U251 CNS) of 31.6 µM and a TGI (HS 578T breast) of 46.3 µM. The TGI (HT29 colon) was 39.5 µM, the TGI (ACHN renal) was 63 µM and the TGI (NCI-H23 lung) was 39.2 µM. It also gave a TGI (LOX IMVI melanoma) of 39 µM.
